Here are results for 20 compounds from patent publication US4454122A, “Adenosine derivatives of anti-inflammatory and analgesic activity, and therapeutic compositions which contain them as their active principle” (Bioresearch S.r.l., priority 1982, dated 1984).

Structures are written as SMILES.

For series [1], the system named is experimental edema in the rat by carragen. In words: experimental edema in the rat by carragen (Winter method), percentage protection. The class given is in vivo. Particulars: for inhibition in vivo at 80 mg/kg: 80 mg/kg orally; for inhibition in vivo at 85 mg/kg: 85 mg/kg orally.
In series [2] the test system is fever induced in the rat by beer yeast. In words: fever induced in the rat by beer yeast (antipyretic activity). Particulars: 200 mg/kg, orally. The class given is in vivo. Here is the method: This was measured for the new products by means of fever induced in the rat by beer yeast (Winder C. V. et al (1961) J. Pharmacol. Exp. Ther. 133, 117).
The test system of another series is mouse. In words: hot plate test on the mouse according to Roberts (analgesic activity). In kind it is in vivo. Here is the method: C--The analgesic activity of the products was tested by two tests considered very significant.
In the hot plate test on the mouse according to Roberts (Roberts E. Simonsen D.G. (1966) Biochem. Pharmac. 15, 1875-) the MTA gives a protection of 50% with an oral dose of 37 mg/kg. An approximately equivalent protection of 58% is obtained with 100 mg/kg of amidopyrine administered orally.

For the next series, the system named is gastro-intestinal system. Description: secondary effects on the gastro-intestinal system at ED50 doses (gastric lesions). The class given is in vivo, rat. The note with it: at ED50 doses. Here is the method:
In the same test, the ED50 of indomethacine is 9 mg/kg.

The subject of a further series is rat. The note with it: Martelli A., 1973; cited from earlier work.
A short description of series [3]: lethal dose in the rat and therapeutical index. Particulars: in vivo; edema test in the rat; read-out: therapeutical index (TI).
For series [4], the system named is pleuritis induced in the rat by carragen. In words: pleuritis induced in the rat by carragen (Velo method). In kind it is in vivo.
For series [5], the system named is experimental edema in the rat by carragen. In words: experimental edema in the rat by carragen (Winter method), percentage protection. The class given is in vivo. Here is the method: ^ (a) signifies that the product was administered intramuscularly.
Series [6] deals with platelet aggregation induced by arachidonic acid. Description: in vitro platelet aggregation induced by arachidonic acid (AA). The class given is cell-based. Particulars: MTA 5×10^-4 M or PGI2 5×10^-9 M, each alone; FIG. 3. Here is the method: (2) "in vitro" tests on platelet aggregation induced by arachidonic acid (AA);
Blood was withdrawn without stasis, and an anticoagulant (3.8% sodium citrate) was added to give a blood:citrate ratio of 9:1. Plasma rich in platelets and plasma poor in platelets were obtained by centrifuging at ambient temperature.
The platelet aggregation was estimated using the Born & Cross method (G. V. R. Born and M. J. Cross, J. Physiol., Lond. 168, 178, 1963) on the plasma fraction rich in platelets.
The aggregating agents were used in the following concentrations:
ADP (Sigma) 1 μM; collagen (Horn) 5 μml; arachidonic acid 4×10^-4 M.
The capacity of MTA to increase the inhibiting effect of prostacyclin (PGI2) in aggregation induced by AA was also investigated. In FIG. 3, curve 1 relates to the controls, curve 2 to MTA at a concentration of 5×10^-4 M, curve 3 to PGI2 at a concentration of 5×10^-9 M, and curve 4 to a mixture consisting of 5×10^-4 M MTA and 5×10^-9 M PGI2.

The nature of series [7]: acute toxicity, DL50 in the mouse. Particulars: in vivo. The source says:
The compounds of the present invention are practically free from acute toxicity when administered orally. They are practically free from toxicity at therapeutic doses for any method of administration. The following values are obtained for MTA and MTA sulphoxide: […]

Series [8] relates to stretching by phenylquinone. In words: stretching test by phenylquinone (analgesic activity). Particulars: im; intramuscularly. In kind it is in vivo.
Where [9] appears, read: po, rat, read-out: Percent protection calculated on edema development.
The mark [10] stands for this setting: intramuscular, table 1 and all the tests carried out.

On to `CCSC[C@H]1O[C@@H](n2cnc3c(N)ncnc32)[C@H](O)[C@@H]1O` [n = 0 R = CH2CH3, R1 = R2 = H, 5'-deoxy-5'-ethylthioadenosine], for which the inhibition in vivo at 80 mg/kg in series [1] (setting [9]) is 44%.

On to `CC(C)CSC[C@H]1O[C@@H](n2cnc3c(N)ncnc32)[C@H](O)[C@@H]1O`, for which the inhibition in vivo at 85 mg/kg in [1] (setting [9]) was 62%. As to `Cc1c(N(C)C)c(=O)n(-c2ccccc2)n1C` [amidopyrine, reference compound], in series [2], the temperature reduction was 4.69%. In the series with mouse (100 mg/kg, oral), the “protection in the hot plate test” value came out at 58%. Take `COc1ccc2c(c1)c(CC(=O)O)c(C)n2C(=O)c1ccc(Cl)cc1` [Indomethacine, reference compound]: the “secondary effect on the gastro-intestinal system / gastric lesions” value in the series on gastro-intestinal system is reported as “serious gastric lesions”. Further, the “LD in the rat” value in the series on rat is reported as 12 mg/kg. For the same compound, in series [3], the selectivity ratio came to 1.3. Moreover, in series [4] (10 mg/kg, compared with MTA 75 mg/kg oral), the “protection, compared with that of MTA (in words)” value was “comparable protection”. In addition, the inhibition in vivo at 9 mg/kg in series [5] (Rattus norvegicus, po, read-out: Percent protection calculated on edema development) was 50%. The ED50 (in general, the dose that gives a 50% effect, or the effect in half of the subjects) in series [1] (Rattus norvegicus, po, read-out: ED50 (edema test)) stood at 9 mg/kg.

`CSC[C@H]1O[C@@H](n2cnc3c(NC(=O)c4ccccc4)ncnc32)[C@H](OC(=O)c2ccccc2)[C@@H]1OC(=O)c1ccccc1` [n = 0 R = CH3, R1 = R2 = COC6 H5]: the inhibition in vivo at 164 mg/kg in series [1] (po, 164 mg/kg orally, rat, read-out: Percent protection calculated on edema development) was 10%.

With `CCCCSC[C@H]1O[C@@H](n2cnc3c(N)ncnc32)[C@H](O)[C@@H]1O` [n = 0 R = (CH2)3CH3, R1 = R2 = H], in series [1] (setting [9]), the inhibition in vivo at 85 mg/kg was 39%.

`CSC[C@H]1O[C@@H](n2cnc3c(NC(C)=O)ncnc32)[C@H](OC(C)=O)[C@@H]1OC(C)=O` [n = 0 R = CH3, R1 = R2 = COCH3, N^6,2',3'-triacetyl-5'-deoxy-5'-thioadenosine]: the inhibition in vivo at 114 mg/kg in series [1] (po, 114 mg/kg orally, rat, read-out: Percent protection calculated on edema development) was 47%. On to `CCCCC[C@H](O)/C=C/[C@@H]1[C@H]2C/C(=C/CCCC(=O)O)O[C@H]2C[C@H]1O` [PGI2, reference compound], for which, in [6], the “antiaggregation action alone, AA induced (in words)” value is “ineffective”. With `CCCCCCCSC[C@H]1O[C@@H](n2cnc3c(N)ncnc32)[C@H](O)[C@@H]1O` [n = 0 R = (CH2)6CH3, R1 = R2 = H], the inhibition in vivo at 95 mg/kg in [1] (po, 95 mg/kg orally, rat, read-out: Percent protection calculated on edema development) was 20%.

For `C[S+]([O-])C[C@H]1O[C@@H](n2cnc3c(N)ncnc32)[C@H](O)[C@@H]1O` (stereo partly drawn) [MTA sulphoxide, methylthioadenosine sulphoxide], the “protection in the hot plate test” value was determined as 50% in the series with mouse (20 mg/kg, intramuscularly) and 50% in the series on mouse (100 mg/kg, oral). Besides, the “protection calculated on the total number of cells present in the exudate” value in series [4] (80 mg/kg, intramuscularly, rat) is recorded as 76.4%. Further, in series [4] (80 mg/kg, intramuscularly, rat), the “protection calculated on the volume of the exudate” value is 75.8%. Moreover, in series [5] (im, 8.6 mg/kg intramuscularly, rat, read-out: Percent protection calculated on edema development), the inhibition in vivo at 8.6 mg/kg was 50%. Moreover, the “activity by intramuscular administration (in words)” value was “greater activity” in series [5] (setting [10]) and “particularly active” in series [1] (setting [10]). Further, in series [1] (po, 156 mg/kg orally, rat, read-out: Percent protection calculated on edema development), the inhibition in vivo at 156 mg/kg is 50%. In addition, the LD50 (usually the dose expected to kill half of the subjects tested) in series [7] (iv, intravenously) is 400 mg/kg; in series [7] (po, orally), over 2000 mg/kg. In series [8], this compound showed an ED50 of 10 mg/kg. As for `CCCCCSC[C@H]1O[C@@H](n2cnc3c(N)ncnc32)[C@H](O)[C@@H]1O` [n = 0 R = (CH2)4CH3, R1 = R2 = H], the inhibition in vivo at 90 mg/kg in series [1] (po, 90 mg/kg orally, rat, read-out: Percent protection calculated on edema development) is 25%.

For the compound `CCCCCCCCCCCCSC[C@H]1O[C@@H](n2cnc3c(N)ncnc32)[C@H](O)[C@@H]1O` [n = 0 R = (CH2)11CH3, R1 = R2 =], the inhibition in vivo at 112 mg/kg in series [1] (po, 112 mg/kg orally, rat, read-out: Percent protection calculated on edema development) is 10%. `CCCSC[C@H]1O[C@@H](n2cnc3c(N)ncnc32)[C@H](O)[C@@H]1O` [n = 0 R = (CH2)2CH3, R1 = R2 = H]: in [1] (setting [9]), the inhibition in vivo at 80 mg/kg was 53%. In the case of `CSC[C@H]1O[C@@H](n2cnc3c(NS(=O)(=O)c4ccc(C)cc4)ncnc32)[C@H](OS(=O)(=O)c2ccc(C)cc2)[C@@H]1OS(=O)(=O)c1ccc(C)cc1` [n = 0 R = CH3, R1 = R2 = tosyl], the inhibition in vivo at 204 mg/kg in series [1] (po, 204 mg/kg orally, rat, read-out: Percent protection calculated on edema development) is 15%. As to `CCC(C)SC[C@H]1O[C@@H](n2cnc3c(N)ncnc32)[C@H](O)[C@@H]1O` (stereo partly drawn), in [1] (setting [9]), the inhibition in vivo at 85 mg/kg was 35%.

For `Nc1ncnc2c1ncn2[C@@H]1O[C@H](CSCc2ccccc2)[C@@H](O)[C@H]1O` [n = 0 R = CH2C6 H5, R1 = R2 = H], in [1] (po, 47 mg/kg orally, rat, read-out: Percent protection calculated on edema development), the inhibition in vivo at 47 mg/kg is 10%. For `CC(C)SC[C@H]1O[C@@H](n2cnc3c(N)ncnc32)[C@H](O)[C@@H]1O`, the inhibition in vivo at 80 mg/kg in [1] (setting [9]) is 45%. Turning to `CCCCCCCCSC[C@H]1O[C@@H](n2cnc3c(N)ncnc32)[C@H](O)[C@@H]1O` [n = 0 R = (CH2)7CH3, R1 = R2 = H], in [1] (po, 100 mg/kg orally, rat, read-out: Percent protection calculated on edema development), the inhibition in vivo at 100 mg/kg was 47%. With `CCCCCCCCCCSC[C@H]1O[C@@H](n2cnc3c(N)ncnc32)[C@H](O)[C@@H]1O` [n = 0 R = (CH2)9CH3, R1 = R2 = H], the inhibition in vivo at 106 mg/kg in series [1] (po, 106 mg/kg orally, rat, read-out: Percent protection calculated on edema development) was 33%. Consider `CSC[C@H]1O[C@@H](n2cnc3c(N)ncnc32)[C@@H]2OC(C)(C)O[C@@H]21` [n = 0 R = CH3, R1 = H, R2R1 = isopropyl, 5'-deoxy-2',3'-isopropylidene-5'-methylthioadenosine], for which the inhibition in vivo at 91 mg/kg in series [1] (po, 91 mg/kg orally, rat, read-out: Percent protection calculated on edema development) is 20%.
